# Assays:
# Ca channel human = experiment: PDSP primary binding Ca channel; settings: primary binding, 10,000 nM; last figure of the line = mean of the 4 before it
# Method: (§1) To determine if any off-target receptor-binding effects are present, all the novel ligands were sent to the National Institute of Mental Health (NIMH), Psychoactive Drug Screening Program (PDSP). The ligands were screened over a panel of 47 receptors, ion channels, and transporters to determine any other possible interactions with […]. The hERG-binding was also determined. […] No binding of the test compounds to calcium channels was observed. […] It is necessary to screen the compounds for hERG-binding during the early process of drug discovery. The unintentional binding of many drugs to hERG can cause blockade of hERG K+ channels in the heart, which can cause many side effects including cardiac arrhythmias and sudden death. […] All of the α5 imidazodiazepines were tested for hERG-binding.
# (§2) The NIMH PDSP assay protocol book [https://kidbdev.med.unc.edu/databases/PDSP%20Protocols%20II%202013-03-28.pdf accessed on 23 April 2023]. describes the protocols for primary and secondary radio-ligand binding assays. These assays were carried out in a final volume of 125 µL per well in the appropriate binding buffer.
# (§3) The binding of a ligand to a receptor, ion channel, or transporter was determined in the […] of 10 µM of the appropriate reference compound. […] Plates were incubated in the dark for 90 min at rt, and the reactions were stopped by vacuum filtration onto 0.3% polyethyleneimine (PEI) soaked 96-well filter mats using a 96-well Filtermateharvester. This was followed by three washes with cold PBS buffer. Radioactivity was then counted on a Microbeta counter. Nonlinear regression was used to analyze the data with N = 6 replicates.
# 5-HT3 = target: T1, 5-HT3 (Homo sapiens, UniProt P46098); experiment: PDSP primary binding 5-HT3; settings: 1.5 h; primary binding, 10,000 nM; last figure of the line = mean of the 4 before it; read-out: 5-HT3, PDSP raw data, mean
# T1 construct: purchased NIMH Psychoactive Drug Screening Program (PDSP)
# T1 sequence (P46098 24-478): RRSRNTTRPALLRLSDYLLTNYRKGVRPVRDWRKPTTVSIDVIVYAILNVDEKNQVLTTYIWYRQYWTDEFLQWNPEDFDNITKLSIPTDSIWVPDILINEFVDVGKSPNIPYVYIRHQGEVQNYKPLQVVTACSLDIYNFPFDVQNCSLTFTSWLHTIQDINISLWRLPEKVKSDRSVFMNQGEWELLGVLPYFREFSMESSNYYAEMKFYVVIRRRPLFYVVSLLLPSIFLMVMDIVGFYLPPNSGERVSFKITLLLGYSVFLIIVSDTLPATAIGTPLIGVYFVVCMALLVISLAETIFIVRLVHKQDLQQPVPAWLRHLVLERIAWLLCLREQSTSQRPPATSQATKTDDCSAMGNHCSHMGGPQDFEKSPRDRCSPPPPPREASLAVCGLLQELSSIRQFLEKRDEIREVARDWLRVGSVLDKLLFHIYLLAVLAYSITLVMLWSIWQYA
# Method: as §1, §2, §3
# Alpha1B = target: T2, Alpha1B (Homo sapiens, UniProt P35368); experiment: PDSP primary binding Alpha1B; settings: 1.5 h; primary binding, 10,000 nM; last figure of the line = mean of the 4 before it; read-out: Alpha1B, PDSP raw data, mean
# T2 construct: purchased NIMH Psychoactive Drug Screening Program (PDSP)
# T2 sequence (P35368 1-520): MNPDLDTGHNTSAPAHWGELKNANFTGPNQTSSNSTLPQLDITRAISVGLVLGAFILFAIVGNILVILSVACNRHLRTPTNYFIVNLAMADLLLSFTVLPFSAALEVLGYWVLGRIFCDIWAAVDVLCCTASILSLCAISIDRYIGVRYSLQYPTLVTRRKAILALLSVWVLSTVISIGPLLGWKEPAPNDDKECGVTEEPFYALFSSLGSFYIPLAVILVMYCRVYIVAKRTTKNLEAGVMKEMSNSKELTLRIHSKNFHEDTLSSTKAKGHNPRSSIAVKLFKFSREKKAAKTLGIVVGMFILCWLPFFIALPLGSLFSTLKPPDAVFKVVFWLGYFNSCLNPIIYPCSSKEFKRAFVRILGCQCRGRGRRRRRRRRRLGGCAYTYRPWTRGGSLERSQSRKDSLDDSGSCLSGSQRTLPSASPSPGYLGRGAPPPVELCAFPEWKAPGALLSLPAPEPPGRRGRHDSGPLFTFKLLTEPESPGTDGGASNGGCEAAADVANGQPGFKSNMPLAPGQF
# Method: as §1, §2, §3
# M5 = target: T3, M5 (Homo sapiens, UniProt P08912); experiment: PDSP primary binding M5; settings: primary binding, 10,000 nM; last figure of the line = mean of the 4 before it; read-out: M5, PDSP raw data, mean
# T3 construct: purchased NIMH Psychoactive Drug Screening Program (PDSP)
# T3 sequence (P08912 1-532): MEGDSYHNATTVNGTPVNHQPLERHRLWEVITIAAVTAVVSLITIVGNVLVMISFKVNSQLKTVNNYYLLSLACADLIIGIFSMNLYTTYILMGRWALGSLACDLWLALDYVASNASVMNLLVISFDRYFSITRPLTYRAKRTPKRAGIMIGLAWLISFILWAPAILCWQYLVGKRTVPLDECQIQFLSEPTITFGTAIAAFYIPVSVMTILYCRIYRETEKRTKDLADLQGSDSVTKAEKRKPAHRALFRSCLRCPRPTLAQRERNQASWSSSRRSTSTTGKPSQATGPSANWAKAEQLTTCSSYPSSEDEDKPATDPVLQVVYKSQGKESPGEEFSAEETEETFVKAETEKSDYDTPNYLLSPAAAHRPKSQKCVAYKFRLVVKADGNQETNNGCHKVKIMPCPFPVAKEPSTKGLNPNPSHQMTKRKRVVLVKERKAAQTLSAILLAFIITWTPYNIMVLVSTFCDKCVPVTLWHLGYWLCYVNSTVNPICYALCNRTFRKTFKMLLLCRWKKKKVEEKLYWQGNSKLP
# Method: as §1, §2, §3
# Sigma 1 = experiment: PDSP primary binding Sigma 1; settings: primary binding, 10,000 nM; last figure of the line = mean of the 4 before it
# Method: as §1, §2, §3
# HCA2 = target: T4, HCA2 (Homo sapiens, UniProt Q8TDS4); experiment: PDSP primary binding HCA2; settings: primary binding, 10,000 nM; last figure of the line = mean of the 4 before it; read-out: HCA2, PDSP raw data, mean
# T4 construct: purchased NIMH Psychoactive Drug Screening Program (PDSP)
# T4 sequence (Q8TDS4 whole entry): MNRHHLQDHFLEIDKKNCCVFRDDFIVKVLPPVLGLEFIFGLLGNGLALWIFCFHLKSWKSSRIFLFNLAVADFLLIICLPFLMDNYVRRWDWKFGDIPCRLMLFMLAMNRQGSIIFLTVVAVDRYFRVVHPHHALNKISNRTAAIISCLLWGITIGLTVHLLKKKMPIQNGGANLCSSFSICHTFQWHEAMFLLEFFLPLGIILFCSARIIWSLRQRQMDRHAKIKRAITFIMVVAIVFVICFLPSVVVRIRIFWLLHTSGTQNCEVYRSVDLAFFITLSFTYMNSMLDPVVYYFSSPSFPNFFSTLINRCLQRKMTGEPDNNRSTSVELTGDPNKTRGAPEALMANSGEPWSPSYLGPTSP
# Method: as §1, §2, §3
# Alpha3Beta2 = target: T5, Alpha3Beta2 (Rattus norvegicus, UniProt P04757+P12390); experiment: PDSP primary binding Alpha3Beta2; settings: primary binding, 10,000 nM; last figure of the line = mean of the 4 before it; read-out: Alpha3Beta2, PDSP raw data, mean
# T5 construct: purchased NIMH Psychoactive Drug Screening Program (PDSP)
# T5 sequence (P04757 26-499): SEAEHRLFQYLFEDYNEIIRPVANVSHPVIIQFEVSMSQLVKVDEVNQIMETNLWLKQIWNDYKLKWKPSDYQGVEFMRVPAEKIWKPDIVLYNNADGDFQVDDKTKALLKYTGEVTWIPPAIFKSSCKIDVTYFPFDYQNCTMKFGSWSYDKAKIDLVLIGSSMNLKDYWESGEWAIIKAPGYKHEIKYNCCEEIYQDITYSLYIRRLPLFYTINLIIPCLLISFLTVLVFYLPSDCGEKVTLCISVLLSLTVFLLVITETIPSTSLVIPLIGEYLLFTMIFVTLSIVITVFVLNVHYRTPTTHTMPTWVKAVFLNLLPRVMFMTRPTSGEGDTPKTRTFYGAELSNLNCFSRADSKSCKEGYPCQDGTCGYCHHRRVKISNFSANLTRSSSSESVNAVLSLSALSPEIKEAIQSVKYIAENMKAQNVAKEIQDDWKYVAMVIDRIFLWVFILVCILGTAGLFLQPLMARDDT
# T5 sequence (P12390 25-500): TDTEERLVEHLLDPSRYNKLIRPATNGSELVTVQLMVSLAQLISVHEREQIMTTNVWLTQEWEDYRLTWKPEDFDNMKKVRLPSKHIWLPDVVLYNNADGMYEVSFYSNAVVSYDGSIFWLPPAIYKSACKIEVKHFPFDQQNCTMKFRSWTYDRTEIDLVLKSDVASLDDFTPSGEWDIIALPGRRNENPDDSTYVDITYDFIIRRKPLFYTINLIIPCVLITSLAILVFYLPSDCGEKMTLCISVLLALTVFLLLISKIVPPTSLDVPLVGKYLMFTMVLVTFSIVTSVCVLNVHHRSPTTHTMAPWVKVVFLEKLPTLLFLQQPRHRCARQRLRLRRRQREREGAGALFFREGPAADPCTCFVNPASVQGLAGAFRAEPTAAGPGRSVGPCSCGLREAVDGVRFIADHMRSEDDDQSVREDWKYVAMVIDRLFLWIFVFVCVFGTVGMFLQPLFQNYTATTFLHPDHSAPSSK
# Method: as §1, §2, §3
Compound,"Ca channel human, PDSP raw data, mean (Ca channel human) [%]",inhibition at 10 µM (5-HT3) [%],inhibition at 10 µM (Alpha1B) [%],inhibition at 10 µM (M5) [%],"Sigma 1, PDSP raw data, mean (Sigma 1) [%]",inhibition at 10 µM (HCA2) [%],inhibition at 10 µM (Alpha3Beta2) [%]
"CC(C)c1noc(-c2ncn3c2[C@@H](C)N=C(c2ccccc2F)c2cc(Cl)ccc2-3)n1 [Compound 37, (R)-5-(8-Chloro-6-(2′-fluorophenyl)-4-methyl-4H-benzo[f]imidazo[1,5-a][1,4]diazepin-3-yl)-3-isopropyl-1,2,4-oxadiazole]",7.04,13.5,4.27,-4.88,5.67,35.2,5.77
"C[C@H]1N=C(c2ccccc2F)c2cc(Cl)ccc2-n2cnc(-c3nc(C4CC4)no3)c21 [Compound 38, (R)-5-(8-Chloro-6-(2′-fluorophenyl)-4-methyl-4H-benzo[f]imidazo[1,5-a][1,4]diazepin-3-yl)-3-cyclopropyl-1,2,4-oxadiazole]",30.64,13.5,10.8,-5.18,-1.51,-1.1,6.96
"C#Cc1ccc2c(c1)C(c1ccccc1Cl)=N[C@H](C)c1c(C(=O)NC)ncn1-2 [Compound 21, (R)-6-(2′-Chlorophenyl)-8-ethynyl-N,4-dimethyl-4H-benzo[f]imidazo[1,5-a][1,4]diazepine-3-carboxamide]",9.85,2.85,-6.66,-8.03,44.58,35.7,3.21
C#Cc1ccc2c(c1)C(c1ccccc1Cl)=N[C@H](C)c1c(C(=O)N(C)CC)ncn1-2 [Compound 29],22.67,-4.07,19.8,-17.5,35.65,-26.3,3.52
"CCc1noc(-c2ncn3c2[C@@H](C)N=C(c2ccccc2F)c2cc(C4CC4)ccc2-3)n1 [Compound 46, (R)-5-(8-Cyclopropyl-6-(2′-fluorophenyl)-4-methyl-4H-benzo[f]imidazo[1,5-a][1,4]diazepin-3-yl)-3-ethyl-1,2,4-oxadiazole]",36.53,29.8,9.31,5.69,34.74,-17.2,5.55
"CCc1noc(-c2ncn3c2CN=C(c2ccccc2F)c2cc(C4CC4)ccc2-3)n1 [Compound 44, 5-(8-Cyclopropyl-6-(2′-fluorophenyl)-4H-benzo[f]imidazo[1,5-a][1,4]diazepin-3-yl)-3-ethyl-1,2,4-oxadiazole]",36.68,12.8,6.87,-14.1,53.37,-11.9,-0.02
"CCc1noc(-c2ncn3c2[C@@H](C)N=C(c2ccccc2F)c2cc(Cl)ccc2-3)n1 [Compound 36, (R)-5-(8-Chloro-6-(2′-fluorophenyl)-4-methyl-4H-benzo[f]imidazo[1,5-a][1,4]diazepin-3-yl)-3-ethyl-1,2,4-oxadiazole]",16.74,-2,-0.79,-10.7,46,-29.3,6.01
"CCc1noc(-c2ncn3c2[C@@H](C)N=C(c2ccccc2F)c2cc(-c4ccccc4)ccc2-3)n1 [Compound 35, (R)-3-Ethyl-5-(6-(2′-fluorophenyl)-4-methyl-8-phenyl-4H-benzo[f]imidazo[1,5-a][1,4]diazepin-3-yl)-1,2,4-oxadiazole]",61.85,-9.33,8.69,-7.39,45.25,-18.7,5.43
"C#Cc1ccc2c(c1)C(c1ccccc1F)=N[C@H](C)c1c(C(=S)N(C)C)ncn1-2 [Compound 33, (R)-8-Ethynyl-6-(2′-fluorophenyl)-N,N,4-trimethyl-4H-benzo[f]imidazo[1,5-a][1,4]diazepine-3-carbothioamide]",39.05,-0.89,-15.3,-0.76,46.91,-9.82,2.14
"C#Cc1ccc2c(c1)C(c1ccccn1)=N[C@@H](C)c1c(C(=O)NC)ncn1-2 [Compound 23, (S)-8-Ethynyl-N,4-dimethyl-6-(pyridin-2′-yl)-4H-benzo[f]imidazo[1,5-a][1,4]diazepine-3-carboxamide]",14.91,-7.15,22.2,-13.6,43.18,15.2,7.13
"C[C@H]1N=C(c2ccccc2F)c2cc(-c3ccccc3)ccc2-n2cnc(C(=O)N(C)C)c21 [Compound 5, (R)-6-(2′-Fluorophenyl)-N,N,4-trimethyl-8-phenyl-4H-benzo[f]imidazo[1,5-a][1,4]diazepine-3-carboxamide]",39.05,-0.89,-15.3,-0.76,46.91,-9.82,2.14

# From PMC10303271, “Synthesis and Receptor Binding Studies of α5 GABAAR Selective Novel Imidazodiazepines Targeted for Psychiatric and Cognitive Disorders” (Molecules, 2023)
